Experimental data: US10294202B2, “Pyrrolidinones as herbicides” (FMC Corporation, priority 2013, dated 2019)

Assays:
barnyardgrass [1] = assay: Test A pre-/postemergence herbicide test; type: in vivo, Echinochloa crus-galli
Method in brief: (§1)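 Visual injury ratings, 0 = no effect, 100 = complete control, taken ~10 days after treatment against untreated greenhouse controls. Preemergence: directed soil spray onto seeded loam/sand pots. Postemergence: spray onto plants at one- to two-leaf stage, 2–10 cm tall.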

kochia = assay: Test A pre-/postemergence herbicide test; type: in vivo, Kochia scoparia
Method in brief: as §1

ragweed = assay: Test A pre-/postemergence herbicide test; type: in vivo, Ambrosia elatior
Method in brief: as §1

ryegrass, Italian = assay: Test A pre-/postemergence herbicide test; type: in vivo, Lolium multiflorum
Method in brief: as §1

giant foxtail = assay: Test A pre-/postemergence herbicide test; type: in vivo, Setaria faberii
Method in brief: as §1

pigweed = assay: Test A pre-/postemergence herbicide test; type: in vivo, Amaranthus retroflexus
Method in brief: as §1

wheat = assay: Test A pre-/postemergence herbicide test; type: in vivo, Triticum aestivum; details: Postemergence
Method in brief: as §1

corn = assay: Test A pre-/postemergence herbicide test; type: in vivo, Zea mays; details: Postemergence
Method in brief: as §1

blackgrass = assay: Test A postemergence herbicide test; type: in vivo, Alopecurus myosuroides
Method in brief: (§2)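 Young potted plants in a loam–sand mix, one- to two-leaf stage and 2–10 cm tall, receive the test chemical postemergence and stay in a greenhouse for approximately 10 days. Injury is then judged by eye against untreated plants, scored 0 (none) to 100 (complete control).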

galium = assay: Test A postemergence herbicide test; type: in vivo, Galium aparine
Method in brief: as §2

rice = assay: Test B flooded paddy test; type: in vivo, Oryza sativa; details: Flood, scale of 0 to 100 where 0 is no effect and 100 is complete control
Method in brief: (§3)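 Plants grown to 2-leaf stage; pots flooded 3 cm above soil and compound applied directly into paddy water, depth held throughout. Visual rating against untreated controls after 13 to 15 days in greenhouse, 0 (no effect) to 100 (complete control).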

sedge, umbrella = assay: Test B flooded paddy test; type: in vivo, Cyperus difformis; details: Flood, scale of 0 to 100 where 0 is no effect and 100 is complete control
Method in brief: as §3

ducksalad = assay: Test B flooded paddy test; type: in vivo, Heteranthera limosa; details: Flood, scale of 0 to 100 where 0 is no effect and 100 is complete control
Method in brief: as §3

barnyardgrass [2] = assay: Test B flooded paddy test; type: in vivo, Echinochloa crus-galli; details: Flood, scale of 0 to 100 where 0 is no effect and 100 is complete control
Method in brief: as §3

[3] = Postemergence, 125 g ai/ha, 0 to 100 scale, 0 no effect, 100 complete control
[4] = Postemergence, 500 g ai/ha, 0 to 100 scale (0 no effect, 100 complete control)
[5] = Preemergence, 125 g ai/ha, visual rating on 0 to 100 scale (0 no effect, 100 complete control)
[6] = preemergence, 500 g ai/ha, 0 to 100 scale (0 no effect, 100 complete control)
[7] = preemergence, 500 g ai/ha, 0 to 100 scale
[8] = 125 g ai/ha, 0 to 100 scale, 0 no effect, 100 complete control
[9] = 500 g ai/ha, 0 to 100 scale (0 no effect, 100 complete control)
[10] = 125 g ai/ha, visual rating, 0 to 100 scale, 0 no effect, 100 complete control, approximately 10 days, preemergence

Row | Structure (SMILES) | Plant response rating, Barnyardgrass (barnyardgrass [1]; [3]) | Plant response rating, Barnyardgrass (barnyardgrass [1]; [4]) | Plant response rating, Barnyardgrass (barnyardgrass [1]; [6]) | Plant response rating, Kochia (kochia; [3]) | Plant response rating, Kochia (kochia; [7]) | Plant response rating, Ragweed (ragweed; [3]) | Plant response rating, Ragweed (ragweed; [7]) | Plant response rating, Ryegrass, Italian (ryegrass, Italian; [3]) | Plant response rating, Ryegrass, Italian (ryegrass, Italian; [7]) | Plant response rating, Foxtail, Giant (giant foxtail; [3]) | Plant response rating, Foxtail, Giant (giant foxtail; [7]) | Plant response rating, Pigweed (pigweed; [3]) | Plant response rating, Pigweed (pigweed; [7]) | Plant response rating, Wheat (wheat; [8]) | Plant response rating, Corn (corn; [8]) | Plant response rating, Corn (corn; [9]) | Plant response rating, Blackgrass (blackgrass; [8]) | Plant response rating, Blackgrass (blackgrass; [9]) | Plant response rating, Galium (galium; [8]) | other results
1 | O=C1NCC(c2cccc(C(F)(F)F)c2)C1C(=O)Nc1ccccn1 (racemic) [Compound 110] | 50 | 90 | 90 | 0 | 0 | 0 | 0 | 20 | 0 | 80 | 90 | 0 | 0 | 0 | 0 | 20 | 0 | 70 | 20 | Barnyardgrass plant response rating (barnyardgrass [1]; [5]): 70; Plant response rating, Kochia (kochia; [4]): 0; Kochia plant response rating (kochia; [5]): 0; Plant response rating, Ragweed (ragweed; [4]): 0; Ragweed plant response rating (ragweed; [5]): 0; Plant response rating, Ryegrass, Italian (ryegrass, Italian; [4]): 40; Ryegrass, Italian plant response rating (ryegrass, Italian; [5]): 0; Plant response rating, Foxtail, Giant (giant foxtail; [4]): 90; Foxtail, Giant plant response rating (giant foxtail; [5]): 60; Plant response rating, Pigweed (pigweed; [4]): 0; Pigweed plant response rating (pigweed; [5]): 0; Plant response rating, Wheat (wheat; [9]): 20; Plant response rating, Galium (galium; [9]): 40; Plant response rating, Rice (rice; 1000 g ai/ha): 0; Plant response rating, Sedge, Umbrella (sedge, umbrella; 1000 g ai/ha): 50; Plant response rating, Ducksalad (ducksalad; 1000 g ai/ha): 95; Plant response rating, Barnyardgrass (barnyardgrass [2]; 1000 g ai/ha): 0
2 | O=C1NCC(c2ccc(F)cc2)C1C(=O)Nc1ccccc1OC(F)F (racemic) [Compound 118] | 0 | 60 | 70 | 10 | 0 | 0 | 0 | 0 | 0 | 50 | 90 | 0 | 0 | 0 | 0 | 0 | 0 | 0 | 50 | Plant response rating, Barnyardgrass (barnyardgrass [1]; [10]): 50; Plant response rating, Kochia (kochia; [10]): 0; Kochia plant response rating (0 to 100 scale, 0 is no effect, 100 is complete control) (kochia; Postemergence, 500 g ai/ha): 50; Plant response rating, Ragweed (ragweed; [10]): 0; Ragweed plant response rating (0 to 100 scale, 0 is no effect, 100 is complete control) (ragweed; Postemergence, 500 g ai/ha): 0; Plant response rating, Ryegrass, Italian (ryegrass, Italian; [10]): 0; Ryegrass, Italian plant response rating (0 to 100 scale, 0 is no effect, 100 is complete control) (ryegrass, Italian; Postemergence, 500 g ai/ha): 0; Plant response rating, Foxtail, Giant (giant foxtail; [10]): 90; Foxtail, Giant plant response rating (0 to 100 scale, 0 is no effect, 100 is complete control) (giant foxtail; Postemergence, 500 g ai/ha): 80; Plant response rating, Pigweed (pigweed; [10]): 0; Pigweed plant response rating (0 to 100 scale, 0 is no effect, 100 is complete control) (pigweed; Postemergence, 500 g ai/ha): 0; Wheat plant response rating (0 to 100 scale, 0 is no effect, 100 is complete control) (wheat; 500 g ai/ha): 0; Galium plant response rating (0 to 100 scale, 0 is no effect, 100 is complete control) (galium; 500 g ai/ha): 60; Plant response rating, Rice (rice; 500 g ai/ha): 0; Plant response rating, Sedge, Umbrella (sedge, umbrella; 500 g ai/ha): 0; Plant response rating, Ducksalad (ducksalad; 500 g ai/ha): 100; Plant response rating, Barnyardgrass (barnyardgrass [2]; 500 g ai/ha): 20
